smiles,measurement,setting,value
N#Cc1ccc([C@@H]2O[C@H](CO)[C@@H](O)[C@H](O)[C@H]2O)cc1Cc1ccc(C2CC2)cc1.O=C(O)[C@@H]1CCCN1,mechanical stability of the crystals,allows grinding of the crystals,high mechanical stability
same,physical and chemical stability,under various environmental conditions and during the production of a medicament,high physical and chemical stability
